For 2 molecules, IC50 and MIC results are on record in ChEMBL document CHEMBL1129198, “Synthesis and antibacterial activity of lipophilic carbapenems with anti-MRSA activity” (Bioorg Med Chem Lett, 1996).

In brackets after ≈: the same amount, converted by molar mass.

The test system of assay [1] is Staphylococcus aureus. Nature of the assay: Compound was tested for its binding affinity against PBP2'' receptor in Staphylococcus aureus. Values taken from literature. Format: functional.
Assay [2] can be described thus: In vitro binding affinity towards PBP2'' of Staphylococcus aureus using [14C]benzylpenicillin as radioligand.
For another assay, the system named is Enterococcus faecalis. Nature of the assay: Antibacterial activity against vancomycin-sensitive Enterococcus faecalis 683026. The assay is classed as functional.
In assay [3] the test system is Staphylococcus aureus. The assay can be described thus: Antibacterial activity against methicillin-resistant Staphylococcus aureus 601053. The assay is classed as functional.
The test system of assay [4] is Staphylococcus aureus. Nature of the assay: Antibacterial activity against methicillin-sensitive Staphylococcus aureus 601055.(grown in the presence of blood). The assay is classed as functional.
The subject of assay [5] is Staphylococcus haemolyticus. The assay can be described thus: Antibacterial activity against methicillin-resistant Staphylococcus haemolyticus 601117. The assay is classed as functional.
Assay [6] concerns Staphylococcus aureus. The assay can be described thus: Antibacterial activity against methicillin-resistant Staphylococcus aureus 607004. The assay is classed as functional.
The test system of a further assay is Enterococcus faecium. Nature of the assay: Antibacterial activity against vancomycin-resistant Enterococcus faecium 628016. Format: functional.
Assay [7] can be described thus: (§1) Compound was tested for its binding affinity against PBP2' receptor in Staphylococcus aureus.
Assay [8] has as its system Staphylococcus aureus. Nature of the assay: Antibacterial activity against methicillin-sensitive Staphylococcus aureus 601055. The assay is classed as functional.
A further assay has as its system Streptococcus pneumoniae. The assay can be described thus: Antibacterial activity against penicillin-resistant Streptococcus pneumoniae 671319. Format: functional.
In assay [9] the test system is Staphylococcus aureus. Nature of the assay: Compound was tested for its antibacterial activity against methicillin-resistant Staphylococcus aureus. Format: functional.
Assay [10] relates to Staphylococcus aureus. The assay is described as §1. Format: functional, organism-based.

As a reminder, the IC50 is the concentration needed to halve the response being measured. The MIC is the lowest concentration found to suppress growth. For `C[C@@H](O)[C@H]1C(=O)N2C(C(=O)O)=C(COc3ccc4cc(C(N)=O)ccc4c3)[C@H](C)[C@H]12`, the IC50 in the assay with Staphylococcus aureus [1] is 8 µg/mL (≈ 19.5 µM); in assay [2], > 16 µg/mL; in assay [7], > 16 µg/mL. The MIC in the assay on Enterococcus faecalis was 2 µg/mL (≈ 4.87 µM); with Staphylococcus aureus [3] it was 0.25 µg/mL (≈ 0.609 µM); with Staphylococcus aureus [4], 0.016 µg/mL; in assay [5] it was 2 µg/mL (≈ 4.87 µM); against Staphylococcus aureus [6], 0.5 µg/mL (≈ 1.22 µM); with Enterococcus faecium, 1 µg/mL (≈ 2.44 µM). Moreover, the MIC with Staphylococcus aureus [8] was 0.008 µg/mL (≈ 0.0195 µM); against Streptococcus pneumoniae, 0.03 µg/mL (≈ 0.0731 µM).

`C[C@@H](O)[C@H]1C(=O)N2C(C(=O)O)=C(SCCNC=N)C[C@H]12` [IMIPENEM ANHYDROUS]: the results for the IC50 (with Staphylococcus aureus [1]; in [2]; with Staphylococcus aureus [10]) were 220 µg/mL (≈ 735 µM), 430 µg/mL (≈ 1440 µM) and 430 µg/mL (≈ 1440 µM), respectively. Besides, the MIC with Enterococcus faecalis came to 2 µg/mL (≈ 6.68 µM); against Staphylococcus aureus [3], 8 µg/mL (≈ 26.7 µM); in the assay on Staphylococcus aureus [4], 0.015 µg/mL; in [5], 64 µg/mL (≈ 214 µM); with Staphylococcus aureus [9], 128 µg/mL (≈ 428 µM); against Staphylococcus aureus [6], 64 µg/mL (≈ 214 µM). Also, the MIC turned out to be 4 µg/mL (≈ 13.4 µM) against Enterococcus faecium, 0.03 µg/mL (≈ 0.1 µM) against Staphylococcus aureus [8] and 0.12 µg/mL (≈ 0.401 µM) in the assay with Streptococcus pneumoniae.
